According to PMC11306511, “Combining VPS34 inhibitors with STING agonists enhances type I interferon signaling and anti‐tumor efficacy” (Molecular Oncology, 2024):

Columns and labels:
Conditions in all cases: 2 μM, 24 h, vs DMSO
[1] = tested on: A-498 cells; assay: IFN/cytokine gene expression (qRT-PCR) and secretion (MSD) in A-498 cells; format: cell-based, human
Procedure: (§1) RNA was isolated using the PureLink kit (#12183018A; Thermo Fisher) and DNA‐binding columns (Rneasy plus kit, #74134; Qiagen) and/or Dnase treatment (#12185010; Thermo Fisher). After quantification using NanoDrop, 50 ng·μL^−1 RNA was used for cDNA synthesis with SuperScript IV VILO Master Mix (#11756050; Thermo Fisher). Quantitative RT‐PCR was run with diluted cDNA (1 : 25 or 1 : 12.5), PowerUp SYBR Green Master Mix (#A25741; Thermo Fisher), and 200 nM primers (see Table S3) on a CFX Connect RT‐PCR system (BioRad, Hercules, CA, USA). Data were analyzed using the ΔΔCT method.
(§2) Cell culture medium was centrifuged at 300 g for 10 min at 4 °C and supernatant stored at −80 °C. Mouse blood was collected at termination in K2‐EDTA tubes on ice, centrifuged at 1270 g for 10 min at 4 °C, and plasma was stored at −80 °C. Cytokine levels were quantified using Mesoscale Discovery (MSD) assays: human CCL5 (#F21ZN), CXCL10 (#K151UFK), IFNβ (#K151VIK); mouse CCL5 (#K152A2K) and CXCL10 (#K152UFK). Low concentrations of human IFNβ were determined using High‐Sensitivity IFNβ ELISA (#41415‐1; PBL Assay Science, Piscataway, NJ, USA). CCL5/CXCL10 levels in some experiments were quantified using R&D Systems (Minneapolis, MN, USA) ELISAs: human CCL5 (#DY278) or CXCL10 (#DY266); mouse CCL5 (#DY478).

[2] = tested on: B16-F10 cells; assay: IFN/cytokine gene expression (qRT-PCR) and secretion (MSD) in B16-F10 cells; format: cell-based, murine
Procedure: as §1, §2

[3] = tested on: Me30966 cells; assay: Gene expression (qRT-PCR) in Me30966 cells; format: cell-based, human
Procedure: (A) IFNB1 gene expression quantified by qRT-PCR after 24h treatment with DMSO control or 2 µM of VPS34 inhibitor
(=VPS34i, SB02024 or SAR405) in Me30966 cells.

C[C@@H]1COCCN1c1cc(=O)n2c(n1)N(Cc1cncc(Cl)c1)[C@H](C(F)(F)F)CC2 [SAR405, reference compound]
significantly increased: transcription of IFNB1 and ISGs IRF1, IRF7, IRF9 [1] | transcription of IFNB1 and ISGs IRF1, IRF7, IRF9 [2] | IFNB1 expression [3]
